Laboratory results taken from PubChem BioAssay (NCI).
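Interpolation was linear, between the two tested concentrations surrounding the appropriate level; five concentrations were tested over 48 hours in 96-well plates. At the GI50, growth is halved. TGI is the concentration that stops growth completely.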

Legend:
Assay in all cases: NCI tumour cell line growth inhibition, 48 h
DMS 273 small cell lung = system: DMS 273 small cell lung
OVCAR-8 ovarian = system: OVCAR-8 ovarian
HCT-116 colon = system: HCT-116 colon
SNB-78 CNS = system: SNB-78 CNS
NCI-H522 lung = system: NCI-H522 lung
ACHN renal = system: ACHN renal
MALME-3M melanoma = system: MALME-3M melanoma
RXF 393 renal = system: RXF 393 renal
NCI/ADR-RES ovarian = system: NCI/ADR-RES ovarian
MCF7 breast = system: MCF7 breast

| SMILES | TGI (DMS 273 small cell lung) | TGI (OVCAR-8 ovarian) | TGI (HCT-116 colon) | TGI (SNB-78 CNS) | TGI (NCI-H522 lung) | TGI (ACHN renal) | TGI (MALME-3M melanoma) | TGI (RXF 393 renal) | TGI (NCI/ADR-RES ovarian) | TGI (MCF7 breast) | GI50 (NCI/ADR-RES ovarian) | GI50 (OVCAR-8 ovarian) | GI50 (MCF7 breast) | GI50 (HCT-116 colon) | GI50 (NCI-H522 lung) | GI50 (ACHN renal) | GI50 (MALME-3M melanoma) | GI50 (RXF 393 renal) | GI50 (DMS 273 small cell lung) | GI50 (SNB-78 CNS) |
| --- | --- | --- | --- | --- | --- | --- | --- | --- | --- | --- | --- | --- | --- | --- | --- | --- | --- | --- | --- | --- |
| COC(=O)CCC(NC(=S)N/N=C(\C)c1ccc[nH]1)C(=O)OC (stereo unspecified) | > 100 µM | > 100 µM | > 100 µM | > 100 µM | > 100 µM | > 100 µM | > 100 µM | > 100 µM | – | – | – | – | – | – | – | – | – | – | – | – |
| CCCn1c(SCCSc2c3ccccc3c(-c3nc(F)nc(F)n3)n2CCC)c2ccccc2c1-c1nc(F)nc(F)n1 | > 100 µM | > 100 µM | > 100 µM | > 100 µM | > 100 µM | > 100 µM | > 100 µM | > 100 µM | – | – | – | – | – | – | – | – | – | – | – | – |
| COc1cc(CNc2nc3c(N)cc(C(F)(F)F)cc3nc2-c2ccccc2)cc(OC)c1OC | > 100 µM | > 100 µM | > 100 µM | – | 78.5 µM | > 100 µM | > 100 µM | 69.4 µM | – | – | – | – | – | – | – | – | – | – | – | – |
| C=CC(=O)N1C/C(=C\c2ccc(Cl)c(Cl)c2)C(=O)/C(=C/c2ccc(Cl)c(Cl)c2)C1 | 0.315 µM | 0.274 µM | 0.188 µM | 0.838 µM | 0.302 µM | 0.343 µM | – | 0.299 µM | – | – | – | – | – | – | – | – | – | – | – | – |
| COc1cc2c(cc1OC)C(C(=O)O)C(c1ccccc1)N(C)C2=O (stereo unspecified) | – | > 100 µM | > 100 µM | > 100 µM | > 100 µM | > 100 µM | > 100 µM | – | – | – | – | – | – | – | – | – | – | – | – | – |
| CC(C)N(C(=O)c1cccc(C(=O)N(C(C)C)C(C)C)c1)C(C)C | > 100 µM | > 100 µM | > 100 µM | > 100 µM | > 100 µM | > 100 µM | > 100 µM | – | – | – | – | – | – | – | – | – | – | – | – | – |
| C/C(CC(=O)Nc1cccc(Cl)c1C)=N\NC(N)=S | – | > 100 µM | > 100 µM | > 100 µM | > 100 µM | – | > 100 µM | > 100 µM | – | – | – | – | – | – | – | – | – | – | – | – |
| O=C1C2C(C(=O)N1c1ccccc1)C1c3ccccc3C2C2C(=O)N(c3ccccc3)C(=O)C21 (stereo unspecified) | 53.2 µM | > 100 µM | > 100 µM | – | 8.07 µM | > 100 µM | 67.8 µM | > 100 µM | – | – | – | – | – | – | – | – | – | – | – | – |
| ClC(Cl)=C(Cl)C1(Cl)CC1COCc1ccccc1 (stereo unspecified) | > 100 µM | > 100 µM | – | 60.6 µM | 44.2 µM | > 100 µM | 43.7 µM | 59.6 µM | – | – | – | – | – | – | – | – | – | – | – | – |
| C[N+]1=c2c3cccc4cccc(c(=O)n2CC1)c43 | 28.8 µM | 80.9 µM | 17.3 µM | 54.7 µM | 24.4 µM | > 100 µM | 22.6 µM | 25.5 µM | – | – | – | – | – | – | – | – | – | – | – | – |
| COc1ccc(-c2c(C)c(C(=O)O)nc(-c3ccc4c(O)c(OC)c5c(c4n3)=NC(C)(C)N=5)c2N)c(O)c1OC | – | 21.5 µM | 52.1 µM | – | 24.5 µM | 27.7 µM | 17.7 µM | 51.7 µM | 58 µM | > 100 µM | – | – | – | – | – | – | – | – | – | – |
| CCOc1ccc2c(-c3ccnc(Nc4cc(OC)cc(C(F)(F)F)c4)n3)cnn2n1 | – | > 25 µM | > 25 µM | – | > 10.9 µM | > 25 µM | > 25 µM | > 23.6 µM | > 25 µM | > 25 µM | 4.66 µM | > 15.4 µM | 1.13 µM | 6.42 µM | 1.85 µM | > 25 µM | > 25 µM | 10.8 µM | – | – |
| C[C@H]1[C@H](C)N1CC(O)Cn1ccnc1[N+](=O)[O-] (stereo partly specified) | – | > 100 µM | > 100 µM | – | > 100 µM | > 100 µM | > 100 µM | > 100 µM | > 100 µM | > 100 µM | – | – | – | – | – | – | – | – | – | – |
| O=c1cc(-c2ccccn2)[nH]c2cccc(F)c12 | – | > 100 µM | – | > 100 µM | > 100 µM | > 100 µM | – | > 100 µM | – | – | – | – | – | – | – | – | – | – | – | – |
| CCC[CH2][Sn]([CH2]CCC)([O]C(=O)c1cc(OC)c(OC)cc1OC)[O][Sn]([CH2]CCC)([CH2]CCC)[O]C(=O)c1cc(OC)c(OC)cc1OC | 1.76 µM | 1.89 µM | 1.82 µM | 1.51 µM | 0.0556 µM | 1.17 µM | 0.977 µM | 0.304 µM | – | – | – | 0.583 µM | – | 0.67 µM | – | 0.339 µM | 0.229 µM | 0.151 µM | 0.762 µM | 0.402 µM |
| C/C(CC(=O)NCCc1ccccc1)=N\NS(=O)(=O)c1ccc(C)cc1 | > 100 µM | > 100 µM | > 100 µM | > 100 µM | > 100 µM | > 100 µM | > 100 µM | > 100 µM | – | – | – | – | – | – | – | – | – | – | – | – |
| COc1ccc(C(=O)Cn2c(C(=O)c3ccccc3)nc3ccccc32)cc1 | – | > 100 µM | > 100 µM | – | > 26.7 µM | > 100 µM | > 100 µM | > 22.2 µM | – | > 100 µM | 1.49 µM | 10.2 µM | 1.35 µM | 2.25 µM | 2.16 µM | 6.23 µM | – | 2.38 µM | – | – |
| CC(C)/C=C1\CCC(CN2CCOCC2)C1=O (stereo unspecified) | – | > 40.8 µM | 23.4 µM | 37.4 µM | 3.8 µM | 32.3 µM | 31 µM | 14.1 µM | – | – | – | – | – | – | – | – | – | – | – | – |
| NC(=N\N=C/c1ccc(O)cc1)/C(N)=N\N=C/c1ccc(O)cc1 | – | > 100 µM | > 100 µM | – | > 100 µM | > 100 µM | > 100 µM | > 100 µM | > 100 µM | > 100 µM | > 100 µM | 51.4 µM | > 100 µM | > 100 µM | 0.52 µM | 3.85 µM | > 100 µM | 84.7 µM | – | – |
| O=C(O)C(Cc1cnc[nH]1)N1C(=O)c2ccccc2C1=O (stereo unspecified) | – | > 100 µM | > 100 µM | – | > 100 µM | > 100 µM | > 100 µM | > 100 µM | > 100 µM | > 100 µM | – | – | – | – | – | – | – | – | – | – |
| CCOC(=O)NC(=O)c1cn(CCN2CCN(C(=O)CNC(=O)CNC(=O)Cn3cc(C(=O)NC(=O)OCC)c(=O)[nH]c3=O)CC2)c(=O)[nH]c1=O | > 100 µM | > 100 µM | > 100 µM | > 100 µM | > 100 µM | > 100 µM | > 100 µM | – | – | – | – | – | – | – | – | – | – | – | – | – |
| COC1C(OC(=O)c2ccc(C)[nH]2)C(O)C(Oc2ccc3c(O)c(NC(=O)c4c[nH]c(C(=O)Nc5c(O)c6ccc(OC7OC(C)(C)C(OC)C(OC(=O)c8ccc(C)[nH]8)C7O)c(C)c6oc5=O)c4C)c(=O)oc3c2C)OC1(C)C (stereo unspecified) | 12.2 µM | > 100 µM | – | 7.37 µM | – | 9.43 µM | 5.02 µM | 2.23 µM | – | – | – | – | – | – | – | – | – | – | – | – |
| N#C/C(=C1\SCC(=O)N1c1ccccc1)c1nc2ccccc2[nH]1 | > 100 µM | > 100 µM | > 100 µM | > 100 µM | > 100 µM | > 100 µM | > 100 µM | > 100 µM | – | – | – | – | – | – | – | – | – | – | – | – |
| O=C(/C=C(\O)C(=O)O)/C=C(\O)c1ccccc1 | > 100 µM | > 100 µM | > 100 µM | > 100 µM | > 1 µM | > 100 µM | > 100 µM | > 100 µM | – | – | – | – | – | > 1 µM | > 1 µM | > 1 µM | > 100 µM | – | > 1 µM | > 1 µM |
